Measurements from patent US11633457B2, “Pharmaceutical compositions comprising oncostatin m (OSM) antagonist derivatives and methods of use” (Boise State University, priority 2019, dated 2023).

How the values were obtained:
prostate tumor cell = settings: earlier work (U.S. Ser. No. 15/403,965); cited from earlier work
STAT3, JNK, ERK, and AKT = settings: earlier work (U.S. Ser. No. 15/403,965); cited from earlier work
[1] = tested on: OSM induced secretion of IL-6; assay: ELISA of OSM induced IL-6 secretion; assay type: cell-based; settings: pretreatment with inhibitor; FIG. 5
Method: (§1) OSM-SMI-10B was also assayed for its effect on OSM induced secretions of both VEGF and IL-6 by ELISA (FIG. 5).

[2] = tested on: OSM induced secretion of VEGF; assay: ELISA of OSM induced VEGF secretion; assay type: cell-based; settings: pretreatment with inhibitor; FIG. 5
Method: as §1

[3] = tested on: OSM-induced phosphorylation of STAT3 on Tyr-705 (pSTAT3); assay: ELISA of OSM-induced phosphorylation of STAT3 (pSTAT3) with inhibitor pretreatment; assay type: cell-based, human; settings: for reduction in OSM induced phosphorylation of STAT3 (pSTAT3): 10, 50, and 100 μM per the method of Example 1, FIGS. 4A and 4B; for effect on OSM induced pSTAT3 phosphorylation, initial tests: OSM with or without inhibitor pretreatment, FIG. 3; for reduction of the OSM induced increase in pSTAT3 expression: initial testing, FIG. 6
Method: Therefore, the phosphyloration of various signaling pathways was assayed using an ELISA both with and without inhibitors and at various concentrations.
All human breast carcinoma cell lines used in this aim were purchased from the American Type Culture Collection (ATCC) or Caliper Life Sciences, and the growth of frozen cell aliquots will be initiated on a periodic basis to remove the possibility of cross-cell contamination. The cell lines were regularly tested for mycoplasma contamination by both DAPI staining and PCR. Four invasive ductal carcinoma cell lines, T47D, MCF7, MDA-MB-231 and MDA-MB-468, were used. These include the less aggressive, estrogen receptor-positive (ER+), progesterone receptor positive (PR+), HER2−, luminal T47D and MCF7-luc cell lines, as well as the triple negative breast cancer (TNBC) basal-like cell line, MDA-MB-231-LN-luc, that is metastatic in orthotopic xenografts and the less metastatic TNBC cell line MDA-MB-468. All cell lines express OSMRb, LIFRb, and gp130, as well as various levels of OSM, by RT-PCR
An enzyme-linked immunosorbent assay (ELISA) was used for analyzing initial OSM-induced phosphorylation of STAT3 on Tyr-705 (pSTAT3). T47D, MCF7, and MDA-MB-231 human breast cancer cells induced pSTAT3 upon stimulation with OSM (25 ng/ml) for 30 minutes. OSM-SMI-8 modified inhibitors were used to pretreat the cells in order to assay their ability to inhibit OSM-OSMR interactions. Pretreatment consisted of administering to the cells either 5, 10, 50, or 100 μM of the modified OSM-SMI-8 based inhibitor for 2 hours prior to administration of OSM.

Structure (SMILES)	reduction in OSM induced phosphorylation of STAT3 (pSTAT3) [3]	effect on OSM induced pSTAT3 phosphorylation, initial tests [3]	also measured
O=C(O)/C(=C\C=C\c1ccccc1)c1coc(-c2nc(/C(=C/C=C/c3ccccc3)C(=O)O)co2)n1 [OSM-SMI-8]	–	–	inhibition of OSM induced prostate tumor cell detachment (prostate tumor cell): shown to inhibit; inhibition of OSM induced phosphorylation of STAT3, JNK, ERK, and AKT (STAT3, JNK, ERK, and AKT): shown to inhibit
O=C(O)/C=C/c1cc(-c2ccc3c(c2)OCO3)c(-c2ccc3c(c2)OCO3)o1 [OSM-SMI-10B]	significant reduction in pSTAT3 at every treatment level	inhibitory effect	reduction in the OSM induction of IL-6 secretion [1]: large reduction; reduction in the OSM induction of VEGF secretion [2]: large reduction
O=C(/C=C/c1cc(-c2ccc3c(c2)OCO3)c(-c2ccc3c(c2)OCO3)o1)c1ccccc1 [OSM-SMI-10C]	significant reduction in pSTAT3 at every treatment level	inhibitory effect	–
CCOC(=O)/C=C/c1cc(-c2ccc3c(c2)OCO3)c(-c2ccc3c(c2)OCO3)o1 [OSM-SMI-10D]	–	inhibitory effect	–
C(=N\Nc1ccccc1)/c1cc(-c2ccc3c(c2)OCO3)c(-c2ccc3c(c2)OCO3)o1 [OSM-SMI-10E]	significant reduction in pSTAT3 at every treatment level	inhibitory effect	–
O=C(NCc1ccccc1)c1cc(-c2ccc3c(c2)OCO3)c(-c2ccc3c(c2)OCO3)o1 [OSM-SMI-10J]	–	inhibitory effect	–
O=[N+]([O-])c1c(/C=N/Nc2ccccc2)oc(-c2ccc3c(c2)OCO3)c1-c1ccc2c(c1)OCO2 [OSM-SMI-10]	–	–	inhibition of OSM induced prostate tumor cell detachment (prostate tumor cell): shown to inhibit; inhibition of OSM induced phosphorylation of STAT3, JNK, ERK, and AKT (STAT3, JNK, ERK, and AKT): shown to inhibit
O=C(/C=C/c1ccccc1)c1cccc(N2C(=O)c3ccc(Oc4ccc5c(c4)C(=O)N(c4cccc(C(=O)/C=C/c6ccccc6)c4)C5=O)cc3C2=O)c1 [OSM-SMI-23]	–	–	reduction of the OSM induced increase in pSTAT3 expression [3]: more than about half
Cc1ccc(-c2cc(C(=O)Nc3cccc(C(=O)O)c3)c3cc(Br)ccc3n2)cc1C [OSM-SMI-26]	–	–	reduction of the OSM induced increase in pSTAT3 expression [3]: more than about half
